The target in one series is T1, D4.4 (Homo sapiens, UniProt P21917).
T1 sequence (P21917 1-419): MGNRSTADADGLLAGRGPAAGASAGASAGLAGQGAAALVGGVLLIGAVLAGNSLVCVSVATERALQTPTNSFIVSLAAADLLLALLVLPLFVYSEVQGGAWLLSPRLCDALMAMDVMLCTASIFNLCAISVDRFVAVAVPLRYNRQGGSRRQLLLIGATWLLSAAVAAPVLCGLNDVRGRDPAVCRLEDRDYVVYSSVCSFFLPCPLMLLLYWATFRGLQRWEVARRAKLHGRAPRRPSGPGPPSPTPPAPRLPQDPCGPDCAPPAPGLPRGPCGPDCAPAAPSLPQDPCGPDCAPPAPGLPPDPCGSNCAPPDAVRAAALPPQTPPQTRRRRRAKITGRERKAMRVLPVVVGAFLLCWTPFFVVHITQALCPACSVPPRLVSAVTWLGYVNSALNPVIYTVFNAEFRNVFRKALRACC
In words: D4.4 binding (Ki).

The target in the next series is 5HT2B (Homo sapiens, UniProt P41595). The experiment in a line: Functional activity IC50 (5HT2B antagonist). It is filed as cell-based.
The nature of the next series: Rat pK. Particulars: in vivo; for bioavailability: read-out: Rat pK: % F.
For a further series, the target named is hERG (Homo sapiens, UniProt Q12809). In words: hERG % inhibition at 1 uM.
Series [1] has as its target T2, D2S (Homo sapiens, UniProt P14416). In words: D2S binding (Ki).
The next series can be described thus: AMES Test. It is filed as cell-based.
The target in series [2] is T3, 5HT1A (Homo sapiens, UniProt P08908).
T3 sequence (P08908 1-422): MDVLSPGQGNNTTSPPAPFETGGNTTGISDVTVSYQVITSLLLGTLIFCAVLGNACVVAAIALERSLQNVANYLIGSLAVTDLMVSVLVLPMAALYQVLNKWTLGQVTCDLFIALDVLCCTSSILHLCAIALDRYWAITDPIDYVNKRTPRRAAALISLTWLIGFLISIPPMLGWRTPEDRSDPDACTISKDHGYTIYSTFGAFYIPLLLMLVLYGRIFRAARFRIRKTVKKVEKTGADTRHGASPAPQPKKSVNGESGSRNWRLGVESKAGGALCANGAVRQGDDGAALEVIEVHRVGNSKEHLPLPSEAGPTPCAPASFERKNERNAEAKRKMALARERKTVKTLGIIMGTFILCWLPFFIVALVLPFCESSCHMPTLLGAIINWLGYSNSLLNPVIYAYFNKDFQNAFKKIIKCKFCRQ
The experiment in a line: 5HT1A binding (Ki).

A further series is described as follows: HLM T1/2. The following applies: human, liver microsomes. (Liver microsomes are a subcellular fraction often used to study metabolism.)
The target in a further series is D2 (Homo sapiens, UniProt P14416). In words: Functional activity D2 (agonist / antagonist). The series is classed as cell-based.
The nature of a further series: % Protein Binding. It is filed as in vitro ADME.
Another series deals with D3 (Homo sapiens, UniProt P35462). In words: D3 binding (Ki).
The next series deals with D1 (Homo sapiens, UniProt P21728). The experiment in a line: D1 binding (Ki).
The next series concerns IP3. The experiment in a line: IC50 (IP3). The series is classed as cell-based.
For the next series, the target named is s 1 (Homo sapiens, UniProt Q99720). The experiment in a line: s 1 binding (Ki).
A further series deals with Na chan. The experiment in a line: Na channel binding (Ki).
The next series can be described thus: Mouse pK. Particulars: in vivo.
Series [3] addresses T3, 5HT1A. In words: Functional activity 5HT1A. The series is classed as cell-based.
The target of series [4] is T4, 5HT2A (Homo sapiens, UniProt P28223). In words: Functional activity 5HT2A. The series is classed as cell-based.
For the next series, the target named is D2L (Homo sapiens, UniProt P14416). In words: Functional activity D2L. It is filed as cell-based.
Series [5] deals with T2, D2S. The experiment in a line: Functional activity D2S. The series is classed as cell-based.
For series [6], the target named is T4, 5HT2A. In words: 5HT2A binding (Ki).
For another series, the target named is T5, D4 (Homo sapiens, UniProt P21917).
T5 sequence (P21917 1-419): T1 sequence (P21917 1-419)
In words: D4 binding (Ki).

The mark [7] stands for this setting: iv, read-out: Rat pK: T1/2 (iv).
Setting [8] is: po, read-out: Rat pK: T1/2 (po).

Where two headings read alike, the source gives them in different places. Bounds are passed on as bounds.

hERG, sequence (Q12809 whole entry): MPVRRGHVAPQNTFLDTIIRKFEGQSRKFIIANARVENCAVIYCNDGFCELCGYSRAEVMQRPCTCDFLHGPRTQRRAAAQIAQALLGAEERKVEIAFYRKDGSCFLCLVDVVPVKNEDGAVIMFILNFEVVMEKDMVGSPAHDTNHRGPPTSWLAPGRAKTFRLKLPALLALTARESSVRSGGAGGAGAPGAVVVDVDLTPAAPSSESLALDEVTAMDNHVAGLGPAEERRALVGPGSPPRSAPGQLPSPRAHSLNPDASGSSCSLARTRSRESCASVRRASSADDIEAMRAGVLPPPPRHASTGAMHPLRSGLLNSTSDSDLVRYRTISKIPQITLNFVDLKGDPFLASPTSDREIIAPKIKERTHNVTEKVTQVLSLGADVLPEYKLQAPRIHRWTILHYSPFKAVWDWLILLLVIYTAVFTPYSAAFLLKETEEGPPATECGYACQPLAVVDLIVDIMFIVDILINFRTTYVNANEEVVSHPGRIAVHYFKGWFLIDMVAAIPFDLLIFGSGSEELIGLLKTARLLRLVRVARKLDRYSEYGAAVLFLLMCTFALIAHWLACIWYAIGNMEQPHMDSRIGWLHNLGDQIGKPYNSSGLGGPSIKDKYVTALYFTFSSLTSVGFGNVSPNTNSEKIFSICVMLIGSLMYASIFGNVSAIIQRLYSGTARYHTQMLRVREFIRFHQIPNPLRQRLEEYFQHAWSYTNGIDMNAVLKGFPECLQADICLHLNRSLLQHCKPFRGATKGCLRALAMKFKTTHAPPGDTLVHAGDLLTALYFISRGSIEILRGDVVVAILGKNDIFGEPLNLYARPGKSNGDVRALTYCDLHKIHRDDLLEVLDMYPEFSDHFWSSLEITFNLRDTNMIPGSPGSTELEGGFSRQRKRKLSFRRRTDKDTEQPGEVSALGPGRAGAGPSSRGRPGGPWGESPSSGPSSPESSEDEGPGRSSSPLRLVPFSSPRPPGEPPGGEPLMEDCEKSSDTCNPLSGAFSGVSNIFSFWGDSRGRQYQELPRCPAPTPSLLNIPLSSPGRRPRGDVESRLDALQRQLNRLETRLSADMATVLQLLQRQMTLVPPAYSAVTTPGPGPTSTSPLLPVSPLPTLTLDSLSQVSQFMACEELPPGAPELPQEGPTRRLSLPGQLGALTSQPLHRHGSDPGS
T2 sequence (P14416 1-414 isoform P14416-2): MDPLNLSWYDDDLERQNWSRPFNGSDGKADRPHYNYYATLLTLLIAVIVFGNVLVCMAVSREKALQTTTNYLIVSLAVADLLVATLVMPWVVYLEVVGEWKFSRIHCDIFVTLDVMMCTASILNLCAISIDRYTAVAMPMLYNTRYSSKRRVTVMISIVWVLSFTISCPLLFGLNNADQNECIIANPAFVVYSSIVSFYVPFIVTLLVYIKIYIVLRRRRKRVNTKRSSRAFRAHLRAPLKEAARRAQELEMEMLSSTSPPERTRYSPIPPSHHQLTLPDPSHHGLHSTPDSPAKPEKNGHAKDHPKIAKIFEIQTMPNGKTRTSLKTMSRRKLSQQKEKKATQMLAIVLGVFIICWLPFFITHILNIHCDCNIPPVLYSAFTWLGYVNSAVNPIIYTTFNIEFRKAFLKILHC
T4 sequence (P28223 whole entry, species assumed): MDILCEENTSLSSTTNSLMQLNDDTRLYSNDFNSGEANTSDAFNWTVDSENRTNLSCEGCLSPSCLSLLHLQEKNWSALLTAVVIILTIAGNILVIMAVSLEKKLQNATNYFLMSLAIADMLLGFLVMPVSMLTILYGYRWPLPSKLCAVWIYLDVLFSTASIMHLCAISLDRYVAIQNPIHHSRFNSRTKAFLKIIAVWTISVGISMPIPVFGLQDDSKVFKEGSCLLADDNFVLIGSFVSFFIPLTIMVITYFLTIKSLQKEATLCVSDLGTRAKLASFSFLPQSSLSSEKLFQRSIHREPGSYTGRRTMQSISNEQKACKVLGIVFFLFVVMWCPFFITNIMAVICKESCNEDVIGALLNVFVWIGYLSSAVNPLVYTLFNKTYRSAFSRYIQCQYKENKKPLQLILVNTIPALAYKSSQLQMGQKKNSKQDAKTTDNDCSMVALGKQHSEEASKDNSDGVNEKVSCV
5HT2B, sequence (P41595 whole entry, species assumed): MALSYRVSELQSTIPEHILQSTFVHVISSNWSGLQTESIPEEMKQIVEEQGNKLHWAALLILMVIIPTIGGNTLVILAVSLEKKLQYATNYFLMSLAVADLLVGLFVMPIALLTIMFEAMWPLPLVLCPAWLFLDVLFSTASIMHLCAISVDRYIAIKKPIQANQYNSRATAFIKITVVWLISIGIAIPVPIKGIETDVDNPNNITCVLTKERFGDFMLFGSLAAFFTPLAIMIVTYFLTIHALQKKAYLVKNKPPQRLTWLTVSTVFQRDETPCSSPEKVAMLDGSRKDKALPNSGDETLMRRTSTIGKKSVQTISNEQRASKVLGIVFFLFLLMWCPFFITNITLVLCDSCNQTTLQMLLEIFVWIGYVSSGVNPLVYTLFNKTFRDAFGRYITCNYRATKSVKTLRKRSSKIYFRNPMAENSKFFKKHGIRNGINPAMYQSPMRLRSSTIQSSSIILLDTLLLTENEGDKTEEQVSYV
D3, sequence (P35462 whole entry): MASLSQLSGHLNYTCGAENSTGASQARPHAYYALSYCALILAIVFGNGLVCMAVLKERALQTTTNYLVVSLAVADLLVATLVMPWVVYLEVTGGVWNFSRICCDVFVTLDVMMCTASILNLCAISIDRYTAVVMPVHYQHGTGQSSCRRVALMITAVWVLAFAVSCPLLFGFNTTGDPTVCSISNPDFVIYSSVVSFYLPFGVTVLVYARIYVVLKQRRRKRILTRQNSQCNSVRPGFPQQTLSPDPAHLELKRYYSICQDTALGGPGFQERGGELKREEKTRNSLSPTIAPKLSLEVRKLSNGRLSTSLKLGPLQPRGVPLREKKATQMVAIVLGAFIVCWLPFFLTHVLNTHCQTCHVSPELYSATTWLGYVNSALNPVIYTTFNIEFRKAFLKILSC
s 1, sequence (Q99720 whole entry): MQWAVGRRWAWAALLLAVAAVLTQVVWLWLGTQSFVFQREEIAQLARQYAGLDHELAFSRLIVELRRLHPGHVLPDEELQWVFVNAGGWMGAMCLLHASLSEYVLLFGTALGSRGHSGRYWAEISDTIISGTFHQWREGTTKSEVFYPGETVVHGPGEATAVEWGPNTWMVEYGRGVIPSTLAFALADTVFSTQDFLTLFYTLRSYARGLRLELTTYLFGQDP
D2L, sequence (P14416 whole entry): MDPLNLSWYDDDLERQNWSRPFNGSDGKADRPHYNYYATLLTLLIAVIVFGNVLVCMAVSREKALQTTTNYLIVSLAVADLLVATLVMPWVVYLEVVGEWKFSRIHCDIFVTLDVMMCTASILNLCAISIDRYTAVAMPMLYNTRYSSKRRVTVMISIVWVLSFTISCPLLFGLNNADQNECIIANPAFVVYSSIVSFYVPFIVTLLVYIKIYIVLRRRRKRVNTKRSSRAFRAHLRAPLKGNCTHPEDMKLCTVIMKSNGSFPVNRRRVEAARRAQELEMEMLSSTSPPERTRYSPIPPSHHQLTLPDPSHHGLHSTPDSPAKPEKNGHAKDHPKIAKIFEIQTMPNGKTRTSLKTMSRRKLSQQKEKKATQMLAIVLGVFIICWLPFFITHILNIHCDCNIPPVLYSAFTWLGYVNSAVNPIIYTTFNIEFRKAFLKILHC
D2, sequence (P14416 whole entry): as above
D1, sequence (P21728 whole entry): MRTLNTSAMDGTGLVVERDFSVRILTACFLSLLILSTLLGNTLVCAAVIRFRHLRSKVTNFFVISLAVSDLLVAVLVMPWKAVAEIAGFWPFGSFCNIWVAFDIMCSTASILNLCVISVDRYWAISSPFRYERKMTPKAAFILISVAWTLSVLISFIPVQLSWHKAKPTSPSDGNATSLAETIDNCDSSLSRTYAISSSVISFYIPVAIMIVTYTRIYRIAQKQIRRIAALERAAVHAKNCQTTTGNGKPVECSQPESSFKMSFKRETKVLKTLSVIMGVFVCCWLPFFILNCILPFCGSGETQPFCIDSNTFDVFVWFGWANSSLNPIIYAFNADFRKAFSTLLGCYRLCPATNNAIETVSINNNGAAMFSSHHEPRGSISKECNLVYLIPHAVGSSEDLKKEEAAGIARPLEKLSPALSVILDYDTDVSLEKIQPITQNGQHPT

Consider `N#Cc1cc(CN2CCC(Nc3ncnc4sc(Cl)cc34)CC2)ccc1F` [Example B50, 5-((4-(6-chlorothieno [2,3-d]pyrimidin-4-ylamino)piperidin-1-yl)methyl)-2-fluorobenzonitrile, monomaleate], for which the results for the Ki on D4.4, at D2S [1] (NA: Not Active) and on 5HT1A [2] were 5.4 nM, 670 nM and 100 nM, respectively. Inhibition at 5HT2B was half-maximal at 27 nM (IC50). Moreover, the half-life came to 37.2 min in “Rat pK” (setting [7]), 53.4 min in the series “Rat pK” (setting [8]) and 28 min in “HLM T1/2”. The bioavailability in the series “Rat pK” (po) is 22.6%. Also, the “hERG (% Inhibition at 1 uM)” value on hERG is given as 23.7%. Further, the “AMES Test” value in the series “AMES Test” is given as “Negative”.

The compound `N#Cc1cccc(CN2CCC(Nc3ncnc4sc(Cl)cc34)CC2)c1` [Example B43, 3-((4-(6-chlorothieno [2,3-d]pyrimidin-4-ylamino)piperidin-1-yl)methyl) benzonitrile, monomaleate] came in with an EC50 at D2 (agonist) of 920 nM. For the same compound, the “IC50 (D2)” value at D2 (antagonist) is “No antagonist activity”. Besides, the fraction unbound in “% Protein Binding” is 0.018. The Ki turned out to be 1300 nM on D3; 25 nM at D4.4; 1200 nM on D1; 1000 nM at D2S [1]; 11 nM on s 1; 280 nM at 5HT1A [2]. The Ki on Na chan stood at 970 nM. The figures for the IC50 on 5HT2B and in the series with IP3 were 17.5 nM and 1.48 nM, respectively. Further, the half-life in “Rat pK” (setting [7]) is 44.4 min; in “Rat pK” (setting [8]) it was 91.8 min; in “Mouse pK” (ip, read-out: Mouse pK: T1/2 (ip)), 30 min; in the series “Mouse pK” (iv, read-out: Mouse pK: T1/2 (iv)), 26 min; in the series “HLM T1/2”, 22 min. Moreover, the bioavailability in “Rat pK” (po) worked out at 17.2%; in the series “Mouse pK” (ip, read-out: Mouse pK: % F), 87%. Besides, on hERG, the “hERG (% Inhibition at 1 uM)” value was found to be 47.3%. The “AMES Test” value in the series “AMES Test” was “Negative”.

On to `Fc1cccc(CN2CCC(Nc3ncnc4sc(Cl)cc34)CC2)c1.O=C(O)/C=C\C(=O)O` [Example B42, N-(1-(3-fluorobenzyl)piperidin-4-yl)-6-chlorothieno[2,3-d]pyrimidin-4-amine, monomaleate], for which the “Functional Activity IC50 (5HT1A)” value on 5HT1A [3] is “Not Active”. The same compound yielded a fraction unbound in the series “% Protein Binding” of 0.017. Further, the Ki worked out at 26 nM on D3; 4.7 nM at D4.4; 170 nM at D2S [1] (NA: Not Active); 52 nM at 5HT2A [6]; 6.7 nM on s 1; 17 nM on 5HT1A [2]. The Ki at Na chan was determined as 250 nM. In addition, the IC50 turned out to be 110 nM against 5HT2B; 340 nM at 5HT2A [4]; 162 nM against D2L; 1.7 nM in the series on IP3; 292 nM against D2S [5]. The half-life in “Rat pK” (setting [7]) came to 24 min; in the series “Rat pK” (setting [8]) it was 72 min. Also, the bioavailability in “Rat pK” (po) is 22.4%. In addition, the “hERG (% Inhibition at 1 uM)” value at hERG came out at 50.1%. Besides, the “AMES Test” value in “AMES Test” is “Negative”.

`CN(C)C(=O)c1cccc(CN2CCC(Nc3ncnc4sc(Cl)cc34)CC2)c1` [Example B57, 3-((4-(6-chlorothieno[2,3-d]pyrimidin-4-ylamino)piperidin-1-yl)methyl)-N,N-dimethylbenzamide, monomaleate]: the Ki on D4 (read-out: Ki (D4)) was 540 nM. Moreover, in the series “HLM T1/2”, the half-life came to 24 min.

Turning to `CNC(=O)c1cccc(CN2CCC(Nc3ncnc4sc(Cl)cc34)CC2)c1` [Example B55, 3-((4-(6-chlorothieno [2,3-d]pyrimidin-4-ylamino)piperidin-1-yl)methyl)-N-methylbenzamide, monomaleate], the Ki on D4 turned out to be 330 nM. This compound also displayed a half-life in “HLM T1/2” of 34 min.

Take `CS(=O)(=O)c1cccc(CN2CCC(Nc3ncnc4sc(Cl)cc34)CC2)c1` [Example B58, N-(1-(3-(methylsulfonyl)benzyl)piperidin-4-yl)-6-chlorothieno[2,3-d]pyrimidin-4-amine, monomaleate]: the Ki is > 10000 nM at D2S [1] and 430 nM on D4 (read-out: Ki (D4)). In addition, the half-life in the series “HLM T1/2” was 27 min.

With `Fc1cc(F)cc(CN2CCC(Nc3ncnc4sc(Cl)cc34)CC2)c1.O=C(O)/C=C\C(=O)O` [Example B34, N-(1-(3,5-difluorobenzyl)piperidin-4-yl)-6-chlorothieno[2,3-d]pyrimidin-4-amine, monomaleate], on 5HT1A [3], the “Functional Activity IC50 (5HT1A)” value is on record as “Not Active”. The same compound came in with a fraction unbound in the series “% Protein Binding” of 0.01. Moreover, the Ki at D3 came to 140 nM; at D4.4, 3.4 nM; on D2S [1] (NA: Not Active), 66 nM; at 5HT2A [6], 260 nM; at 5HT1A [2], 35 nM. Moreover, the IC50 came to 680 nM against 5HT2B, 17.2 nM against D2L, 0.74 nM in the series with IP3 and 63.3 nM against D2S [5]. Also, the half-life is 24 min in the series “Rat pK” (setting [7]) and 66 min in the series “Rat pK” (setting [8]). Further, in “Rat pK” (po), the bioavailability was determined as 29.1%. Also, the “Functional Activity IC50 (5HT2A)” value at 5HT2A [4] is “Not Active”. The “hERG (% Inhibition at 1 uM)” value on hERG was determined as 29.4%. Further, the “AMES Test” value in “AMES Test” is reported as “Negative”.

Take `O=S(=O)(c1cccc(CN2CCC(Nc3ncnc4sc(Cl)cc34)CC2)c1)C(F)(F)F` [Example B56, N-(1-(3-(trifluoromethylsulfonyl)benzyl)piperidin-4-yl)-6-chlorothieno[2,3-d] pyrimidin-4-amine, monomaleate]: the Ki amounted to 3100 nM at D2S [1] and 180 nM at D4 (read-out: Ki (D4)). Further, in “HLM T1/2”, the half-life is < 15 min.

What is called Ki is a dissociation constant, usually derived from enzyme kinetics or from competition with a known ligand. What is called IC50 is the point on the concentration scale where inhibition reaches its midpoint. What is called EC50 is the midpoint of the concentration-response curve. Read a high EC50 as weaker potency. For orientation: fraction unbound means free concentration divided by total concentration. Read a low fraction unbound as little free substance.

For the origin of these results see patent US20110082157A1, “Piperidinylamino-Thieno [2,3-D] Pyrimidine Compounds” (priority 2004, published 2011).
